Measurements from publication PMC6397271 (Scientific Reports, 2019).
In brackets after ≈: the same amount, converted by molar mass. Where two headings read alike, the source gives them in different places.

Key:
[1] = tested on: Enterococcus faecalis 3937158; experiment: microbe, parasite or virus in culture; assay type: cell-based; details: for MIC: raw MIC
Text: (§1) Three bacterial strains of MRSA (N315, 12673, 6347) and two of Enterococcus spp. (E. faecium, E. faecalis) were used. With respect to MRSA, N315 represented a reference Van-susceptible strain (GenBank GCA_00000645.1) isolated from a patient while 12673 (Van-intermediately susceptible) and 6347 (a h-VISA which appears at frequency of <10^−5 to 10^−6 is composed of two subpopulations of bacteria: one susceptible and one intermediately resistant)[38] were clinical strains obtained from patients of The Clinical University Centre of Gdańsk (UCK). […] The clinical strain isolates originated from the collection of the Department of Pharmaceutical Technology and Biochemistry, Faculty of Chemistry, Gdańsk University of Technology.
(§2) The strains were grown in Mueller-Hinton broth (MH cation-adjusted, Becton Dickinson) or Brain Heart Infusion broth (BHI, Becton Dickinson), respectively. The cultivation was carried out in an aerobic atmosphere at 37 °C for 24 hours and, afterwards, the bacterial cultures were diluted in geometric progression with a proper broth. Next, 100 µl of each dilution was inoculated in an agar plate and incubated at 37 °C for 24 h. The next procedures included determination of Colony Forming Units (CFU)/ml and minimal inhibitory concentration (MIC) of the compounds in question. The latter procedure was carried out according to the microbroth dilution technique using 96-well plates. The MICs were evaluated by using the metabolic assay based on the resazurin dye. The assay was performed in triplicates.

[2] = tested on: Enterococcus faecium 3934825; experiment: microbe, parasite or virus in culture; assay type: cell-based; details: for MIC: raw MIC
Text: as §1, §2

[3] = tested on: S. aureus MRSA hetero-VISA 6347; experiment: microbe, parasite or virus in culture; assay type: cell-based, Staphylococcus aureus; details: for MIC: raw MIC
Text: as §1, §2

S. aureus MRSA 12673 = experiment: microbe, parasite or virus in culture; assay type: cell-based, Staphylococcus aureus; details: for MIC: raw MIC
Text: as §1, §2

S. aureus MRSA N315 = experiment: microbe, parasite or virus in culture; assay type: cell-based, Staphylococcus aureus
Text: as §1, §2

sheep erythrocytes = experiment: Erythrocyte lysis assay; assay type: cell-based; details: 37 °C, 1 hour, A450 nm; for cell lysis (haemolysis): 10^8 cells/ml, vs 4% Triton X-100, triplicates
Experimental: The protocol of the lysis assay is presented below.
To obtain sheep erythrocytes, 5 ml of fresh blood was centrifuged at 1000 × g for 10 min and washed 3 times with 0.9% NaCl. Cell suspension (final concentration of 10^8 cells/ml) in a volume of 75 µl was added to each well of the 96-well microtiter plate and incubated at 37 °C in the presence of the tested compounds. The range of their concentrations was 100–0.049 µM (diluted in saline solution), which included that of MIC values for the tested strains of the bacteria.
Plates with samples were incubated at 37 °C for 1 hour and then centrifuged at 1000 × g for 10 min to separate the unlysed erythrocytes. Next, the supernatant was transferred to a new plate. The absorbance (A) was measured spectrophotometrically at 450 nm of wavelength. The experiments were performed in triplicates.
The haemolysis percentage was calculated according to the equation presented by Sharma et al.[43]. The percentage of haemolysis = [(A450nm of test compound treated sample-A450nm of buffer treated sample)/(A450nm of 4%TritonX-100 treated samples-A450nm of buffer treated sample)] × 100.

[4] = first block, test a, repetition 1, read-out: MIC1a
[5] = first block, test a, repetition 2, read-out: MIC2a
[6] = first block, test a, repetition 3, read-out: MIC3a
[7] = first block, test b, repetition 1, read-out: MIC1b
[8] = first block, test b, repetition 2, read-out: MIC2b
[9] = first block, test b, repetition 3, read-out: MIC3b
[10] = test a, repetition 1, read-out: MIC1a
[11] = test a, repetition 2, read-out: MIC2a
[12] = test a, repetition 3, read-out: MIC3a
[13] = test b, repetition 1, read-out: MIC1b
[14] = test b, repetition 2, read-out: MIC2b
[15] = test b, repetition 3, read-out: MIC3b
[16] = same test as μM value, mean ± SD

SMILES: CC[C@H](C)[C@H](NC(=O)[C@H](CCCCN)NC(=O)[C@H](CCCCN)NC(=O)[C@H](C)NC(=O)[C@H](CC(C)C)NC(=O)[C@H](C)NC(=O)[C@H](C)NC(=O)[C@H](CC(C)C)NC(=O)[C@H](C)NC(=O)[C@H](CCCCN)NC(=O)[C@H](CC(C)C)NC(=O)[C@H](CC(N)=O)NC(=O)[C@@H](NC(=O)[C@H](CCCCN)NC(=O)CNC(=O)[C@H](CC(C)C)NC(=O)[C@H](CC(C)C)NC(=O)[C@H](Cc1ccc(O)cc1)NC(=O)CNC(=O)[C@H](C)NC(=O)c1cn(CCOCCOCCOCCNC(=O)[C@H]2NC(=O)[C@H]3NC(=O)[C@H](NC(=O)[C@@H]4NC(=O)[C@H](CC(N)=O)NC(=O)[C@H](NC(=O)[C@@H](CC(C)C)NC)[C@H](O)c5ccc(c(Cl)c5)Oc5cc4cc(c5O[C@@H]4O[C@H](CO)[C@@H](O)[C@H](O)[C@H]4O[C@H]4C[C@](C)(N)[C@H](O)[C@H](C)O4)Oc4ccc(cc4Cl)[C@H]3O)c3ccc(O)c(c3)-c3c(O)cc(O)cc32)nn1)[C@@H](C)CC)C(=O)N[C@@H](CC(C)C)C(N)=O [conjugate I, Van-PEG3-TP10]
- MIC [1, 4]: 6.25 µM (≈ 24.3 µg/mL)
- MIC [1, 5]: 3.1 µM (≈ 12 µg/mL)
- MIC [1, 6]: 6.25 µM (≈ 24.3 µg/mL)
- MIC [1, 7]: 6.25 µM (≈ 24.3 µg/mL)
- MIC [1, 8]: 6.25 µM (≈ 24.3 µg/mL)
- MIC [1, 9]: 3.1 µM (≈ 12 µg/mL)
- MIC [1, 10]: 24.27 µM (≈ 94.2 µg/mL)
- MIC [1, 11]: 12.14 µM (≈ 47.1 µg/mL)
- MIC [1, 12]: 24.27 µM (≈ 94.2 µg/mL)
- MIC [1, 13]: 24.27 µM (≈ 94.2 µg/mL)
- MIC [1, 14]: 24.27 µM (≈ 94.2 µg/mL)
- MIC [1, 15]: 12.14 µM (≈ 47.1 µg/mL)
- MIC in (μg/ml) [1, 16]: 24.3 ± 6.3 µg/mL (≈ 6.26 µM)
- MIC [2, 4]: 50 µM (≈ 194 µg/mL)
- MIC [2, 5]: 50 µM (≈ 194 µg/mL)
- MIC [2, 6]: 50 µM (≈ 194 µg/mL)
- MIC [2, 7]: 25 µM (≈ 97.1 µg/mL)
- MIC [2, 8]: 50 µM (≈ 194 µg/mL)
- MIC [2, 9]: 50 µM (≈ 194 µg/mL)
- MIC [2, 10]: 194.2 µM (≈ 754 µg/mL)
- MIC [2, 11]: 194.2 µM (≈ 754 µg/mL)
- MIC [2, 12]: 194.2 µM (≈ 754 µg/mL)
- MIC [2, 13]: 97.1 µM (≈ 377 µg/mL)
- MIC [2, 14]: 194.2 µM (≈ 754 µg/mL)
- MIC [2, 15]: 194.2 µM (≈ 754 µg/mL)
- MIC in (μg/ml) [2, 16]: 194.2 ± 39.6 µg/mL (≈ 50 µM)
- MIC [3, 4]: 1.56 µM (≈ 6.06 µg/mL)
- MIC [3, 5]: 1.56 µM (≈ 6.06 µg/mL)
- MIC [3, 6]: 0.78 µM (≈ 3.03 µg/mL)
- MIC [3, 7]: 1.56 µM (≈ 6.06 µg/mL)
- MIC [3, 8]: 1.56 µM (≈ 6.06 µg/mL)
- MIC [3, 9]: 1.56 µM (≈ 6.06 µg/mL)
- MIC [3, 10]: 6.06 µM (≈ 23.5 µg/mL)
- MIC [3, 11]: 6.06 µM (≈ 23.5 µg/mL)
- MIC [3, 12]: 3.03 µM (≈ 11.8 µg/mL)
- MIC [3, 13]: 6.06 µM (≈ 23.5 µg/mL)
- MIC [3, 14]: 6.06 µM (≈ 23.5 µg/mL)
- MIC [3, 15]: 6.06 µM (≈ 23.5 µg/mL)
- MIC in (μg/ml) [3, 16]: 6.1 ± 1.2 µg/mL (≈ 1.57 µM)
- MIC (S. aureus MRSA 12673; [4]): 1.56 µM (≈ 6.06 µg/mL)
- MIC (S. aureus MRSA 12673; [5]): 3.12 µM (≈ 12.1 µg/mL)
- MIC (S. aureus MRSA 12673; [6]): 1.56 µM (≈ 6.06 µg/mL)
- MIC (S. aureus MRSA 12673; [7]): 1.56 µM (≈ 6.06 µg/mL)
- MIC (S. aureus MRSA 12673; [8]): 3.12 µM (≈ 12.1 µg/mL)
- MIC (S. aureus MRSA 12673; [9]): 3.12 µM (≈ 12.1 µg/mL)
- MIC (S. aureus MRSA 12673; [10]): 6.06 µM (≈ 23.5 µg/mL)
- MIC (S. aureus MRSA 12673; [11]): 6.06 µM (≈ 23.5 µg/mL)
- MIC (S. aureus MRSA 12673; [12]): 6.06 µM (≈ 23.5 µg/mL)
- MIC (S. aureus MRSA 12673; [13]): 6.06 µM (≈ 23.5 µg/mL)
- MIC (S. aureus MRSA 12673; [14]): 12.12 µM (≈ 47.1 µg/mL)
- MIC (S. aureus MRSA 12673; [15]): 12.12 µM (≈ 47.1 µg/mL)
- MIC in (μg/ml) (S. aureus MRSA 12673; [16]): 6.1 ± 3.1 µg/mL (≈ 1.57 µM)
- MIC (S. aureus MRSA N315; microbroth dilution, 96-well, resazurin, 37 °C, 24 h, mean ± SD, at least three independent experiments in triplicates): 1.6 ± 0.9 µM (≈ 6.21 µg/mL)
- MIC (S. aureus MRSA N315; microbroth dilution, 96-well, resazurin, 37 °C, 24 h, mean ± SD, at least three independent experiments in triplicates, read-out: MIC): 1.6 µM (≈ 6.21 µg/mL)
- MIC (S. aureus MRSA N315; raw MIC, first block, test a, repetition 1, read-out: MIC1a): 1.56 µM (≈ 6.06 µg/mL)
- MIC (S. aureus MRSA N315; raw MIC, first block, test a, repetition 2, read-out: MIC2a): 3.12 µM (≈ 12.1 µg/mL)
- MIC (S. aureus MRSA N315; raw MIC, first block, test a, repetition 3, read-out: MIC3a): 1.56 µM (≈ 6.06 µg/mL)
- MIC (S. aureus MRSA N315; raw MIC, first block, test b, repetition 1, read-out: MIC1b): 3.125 µM (≈ 12.1 µg/mL)
- MIC (S. aureus MRSA N315; raw MIC, first block, test b, repetition 2, read-out: MIC2b): 1.56 µM (≈ 6.06 µg/mL)
- MIC (S. aureus MRSA N315; raw MIC, first block, test b, repetition 3, read-out: MIC3b): 1.56 µM (≈ 6.06 µg/mL)
- MIC (S. aureus MRSA N315; raw MIC, test a, repetition 1, read-out: MIC1a): 6.06 µM (≈ 23.5 µg/mL)
- MIC (S. aureus MRSA N315; raw MIC, test a, repetition 2, read-out: MIC2a): 12.12 µM (≈ 47.1 µg/mL)
- MIC (S. aureus MRSA N315; raw MIC, test a, repetition 3, read-out: MIC3a): 6.06 µM (≈ 23.5 µg/mL)
- MIC (S. aureus MRSA N315; raw MIC, test b, repetition 1, read-out: MIC1b): 6.06 µM (≈ 23.5 µg/mL)
- MIC (S. aureus MRSA N315; raw MIC, test b, repetition 2, read-out: MIC2b): 6.06 µM (≈ 23.5 µg/mL)
- MIC (S. aureus MRSA N315; raw MIC, test b, repetition 3, read-out: MIC3b): 6.06 µM (≈ 23.5 µg/mL)
- MIC in (μg/ml) (S. aureus MRSA N315; [16]): 6.1 ± 2.5 µg/mL (≈ 1.57 µM)
- cell lysis (haemolysis) (sheep erythrocytes; 12.5 µM): 15%
- cell lysis (haemolysis) (sheep erythrocytes; 100 µM): 93%
- hemolysis at MIC concentrations (sheep erythrocytes; 6.25–0.78 μM): lack of hemolysis
